Data on 13 compounds can be found in US20260256789A1, “METHODS FOR TREATMENT OF CANCER” (Frontier Medicines Corporation, priority 2022, published 2026).

Structures are written as SMILES.

T1 sequence (P01116 1-169 isoform P01116-2 G12C/C51S/C80L/C118S): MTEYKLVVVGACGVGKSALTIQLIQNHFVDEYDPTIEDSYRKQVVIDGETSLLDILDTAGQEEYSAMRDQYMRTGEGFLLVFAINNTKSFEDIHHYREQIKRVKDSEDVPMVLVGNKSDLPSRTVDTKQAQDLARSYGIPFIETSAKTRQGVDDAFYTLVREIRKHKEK

This test has as its target T1, KRAS G12C (GMPPNP-loaded) and cRAF Ras-binding domain (Homo sapiens, UniProt P01116, C118S/C51S/C80L/G12C).
T1 construct: truncated version comprising amino acids 1-169
Nature of the test: Inhibition of KRAS G12C and cRAF binding (AlphaScreen). Particulars: KRAS G12C preloaded with GTP analogue GMPPNP, 2 hours preincubation. In a few lines:
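AlphaScreen used biotin-AviTag KRAS G12C (Cys-light, aa 1-169; 0.5 nM), GMPPNP-loaded, preincubated 2 h with compound (top 50 μM, 1:3, 10 points, 2% DMSO) in pH 7.4 Hepes buffer with 10 μM GMPPNP. GST-cRAF RBD (aa 50-131; 0.75 nM) plus beads were then added for 60-90 min at room temperature, and IC50 came from a 4-parameter fit.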
A general note: In Alpha technology, singlet oxygen from a donor bead excites a nearby acceptor bead.
In general, IC50 refers to the concentration that inhibits the measured activity by half. Read a high IC50 as a need for much substance. On to `C=CC(=O)N1CC[C@@H](N(C)c2nc(OC[C@@]34CCCN3C[C@H](F)C4)nc3c2CCN(c2nc(N)cc(C)c2C(F)(F)F)C3)C1` [Example 111, 1-((R)-3-((7-(6-amino-4-methyl-3-(trifluoromethyl)pyridin-2-yl)-2-(((2R,7aS)-2-fluorotetrahydro-1H-pyrrolizin-7a(5H)-yl)methoxy)-5,6,7,8-tetrahydropyrido[3,4-d]pyrimidin-4-yl)(methyl)amino)pyrrolidin-1-yl)prop-2-en-1-one], for which the IC50 was no less than 500 nM.
Regarding `CN(CC1CN(C(=O)/C=C/c2nc(C(C)(F)F)no2)C1)c1nc(OC[C@@]23CCCN2C[C@H](F)C3)nc2c(F)c(-c3nc(N)cc4cccc(F)c34)ncc12` [Example 113], the IC50 is less than 10 nM.
Consider `Cc1cc(N)nc(-c2ncc3c(N(C)CC4CN(C(=O)C#CCN5CCOCC5)C4)nc(OC[C@@]45CCCN4C[C@H](F)C5)nc3c2F)c1C(F)(F)F` [Example 114], for which the half-maximal inhibitory concentration (IC50) lay within 10 to 100 nM.
With `Cc1noc(/C=C/C(=O)N2CC[C@@H](N(C)c3nc(OC[C@@]45CCCN4C[C@H](F)C5)nc4c3CC(C)C(c3nc(N)cc(C)c3C(F)(F)F)C4)C2)n1` (stereo partly shown) [Example 115] the figure was less than 10 nM.
Take `CN(c1nc(OC[C@@]23CCCN2C[C@H](F)C3)nc2c(F)c(-c3nc(N)cc4cccc(Cl)c34)ncc12)[C@@H]1CCN(C(=O)/C=C/CN2CCOCC2)C1` [Example 116]: the IC50 was 100 to 500 nM.
With `CC(C)c1noc(/C=C/C(=O)N2CC(CN(C)c3nc(OC[C@@]45CCCN4C[C@H](F)C5)nc4c(F)c(-c5nc(N)cc6cccc(Cl)c56)ncc34)C2)n1` [Example 118] the figure was 100 to 500 nM; with `Cc1cc(N)nc(-c2ncc3c(N(C)[C@@H]4CCN(C(=O)/C=C/CN5CCOCC5)C4)nc(OC[C@@]45CCCN4C[C@H](F)C5)nc3c2F)c1C(F)(F)F` [Example 120], 100 to 500 nM.
`Cc1noc(/C=C/C(=O)N2CC[C@@H](N(C)c3nc(OCC45CCCN4CCC5)nc4c3C[C@@H](C)[C@H](c3nc(N)cc(C)c3C(F)(F)F)C4)C2)n1` [Example 124] had an IC50 of 100 to 500 nM.
The compound `C=CC(=O)N1CC[C@@H](N(C)c2nc(OC[C@@]34CCCN3C[C@H](F)C4)nc3c(F)c(-c4nc(N)ccc4C)ncc23)C1` [Example 125, 1-((R)-3-((7-(6-amino-3-methylpyridin-2-yl)-8-fluoro-2-(((2R,7aS)-2-fluorotetrahydro-1H-pyrrolizin-7a(5H)-yl)methoxy)pyrido[4,3-d]pyrimidin-4-yl)(methyl)amino)pyrrolidin-1-yl)prop-2-en-1-one] returned an IC50 of no less than 500 nM.
Take `C=CC(=O)N1CC(CN(C)c2nc(OC[C@@]34CCCN3C[C@H](F)C4)nc3c(F)c(-c4nc(N)cc5cccc(F)c45)ncc23)C1` [Example 128, 1-(3-(((7-(3-amino-8-fluoroisoquinolin-1-yl)-8-fluoro-2-(((2R,7aS)-2-fluorotetrahydro-1H-pyrrolizin-7a(5H)-yl)methoxy)pyrido[4,3-d]pyrimidin-4-yl)(methyl)amino)methyl)azetidin-1-yl)prop-2-en-1-one]: the half-inhibitory concentration (IC50) was no less than 500 nM.
`Cc1cc(N)nc(-c2ncc3c(N(C)CC4CN(C(=O)/C=C/CN5CCOCC5)C4)nc(OC[C@@]45CCCN4C[C@H](F)C5)nc3c2F)c1C(F)(F)F` [Example 129]: the IC50 lay within 100 to 500 nM.
To `C=CC(=O)N1CC(CN(C)c2nc(OCC34CCCN3CCC4)nc3c(F)c(-c4nc(N)cc(C)c4C4CC4)ncc23)C1` [Example 131, 1-(3-(((7-(6-amino-3-cyclopropyl-4-methylpyridin-2-yl)-8-fluoro-2-((tetrahydro-1H-pyrrolizin-7a(5H)-yl)methoxy)pyrido[4,3-d]pyrimidin-4-yl)(methyl)amino)methyl)azetidin-1-yl)prop-2-en-1-one] belongs no less than 500 nM.
With `C=CC(=O)N1CC(CN(C)c2nc(OC[C@@]34CCCN3C[C@H](F)C4)nc3c2C[C@@H](C)[C@H](c2nc(N)cc(C)c2C(F)(F)F)C3)C1` [Example 132] the figure was 100 to 500 nM.
